Test results as given in patent US4999372A, “New aminochromanol compounds” (ADIR et Compagnie, priority 1988, dated 1991).
Read-outs that look alike come from different tables or passages of the source.

Experiments:
guinea pig = assay: Bronchospasm produced by a histamine aerosol at 4%, compound i.v.; assay type: in vivo; details: 0.30 mg/kg i.v.
Experimental: The bronchodilating activity has been studied in the guinea pig by the method of H. KONZETT and R. ROSSLER, Arch. Exp. Path. U. Pharm. 195, 71 (1940).
For example, the bronchospasm produced in the guinea pig by a histamine aerosol et 4% is inhibited of 96% by the compound of Example 1 B form, at the dose of 0.30 mg/kg i.v., and of 100% by the compound of Example 24 B form, at the dose of 0.35 mg/kg i.v.

aorta of the rat [1] = assay: Reactivity of rat aortic rings to 4-aminopyridine (4 AP); assay type: cell-based; details: 4 AP 5 mM
Experimental: (§1) Male Wistar rats (325-375 g) are anaesthetised i.p. using sodium pentobarbital (30 mg/kg). The thoracic aorta and the mesenteric portal vein are removed. The aorta is dissected into rings 3 mm long and the endothelium is removed mechanically.
(§2) The organs are placed in a 20 ml thermostatically controlled vessel containing a physiological solution composed of (mM): NaCl 112; KCl 5; KH2 PO4 1; MgSO4 1.2; CaCl2 2.5; NaHCO3 25; glucose 11.5; EDTA 0.1; pH: 7.4; 37° C.; 95% O2 +5% CO2.
(§3) The initial force applied is 2 g in the case of the aorta and 0.5 g in the case of the portal vein. The variations in force are measured by a STATHAM sensor connected to a transducer amplifier (GOULD) and are monitored continuously on a GOULD 2400 graphic recorder.
(§4) The experimental protocols are as follows: After a stabilisation period of 90 minutes, the aortic rings are subjected to various tests:
reactivity to 4-aminopyridine (4 AP)
The product to be tested, at a given concentration, or its solvent, is incubated in the normal physiological solution 15 minutes before the addition of the 4 AP (5 mM).
The maximum amplitudes of the responses to the 4 AP in the presence of the product or the solvent are compared.
(§5) The products are used in a form dissolved in water or a suitable solvent.
(§6) The concentrations expressed refer to the final concentrations in terms of base in the isolated organ baths.

[2] = system: spontaneously hypertensive rat (SHR); assay: Arterial pressure in the conscious spontaneously hypertensive rat (SHR), oral; assay type: in vivo
Experimental: The study is carried out on SHR male rats (Charles River) weighing from 260 g to 330 g and aged from 18 to 20 weeks. A polyethylene catheter is positioned at the level of the abdominal aorta and tunnelised at the level of the neck under anaesthesia (ketamine hydrochloride 150 mg/kg intraperitoneally). The animals, placed in movement-restraining cages, are tested in the conscious state at least 48 hours after intervention. The arterial pressure, measured by a STATHAM P23 pressure sensor connected to the abdominal catheter, is registered on a GOULD 2400 recorder. […] The doses administered are expressed in mg/kg of base.
The results obtained with a certain number of representative products of the invention and a reference product, CROMAKALIM, are grouped in the following Table. The variations in systolic and diastolic arterial pressure (PAS and PAD) presented at the most significant times after treatment are expressed as percentage variation with respect to the control values.

[3] = system: conscious renally hypertensive dog; assay: Arterial pressure in the conscious renally hypertensive dog; assay type: in vivo; details: gastric intubation, 0.1 mg/kg
Experimental: Mongrel dogs weighing from 20 to 25 kg are used. A silastic catheter positioned under anaesthesia (sodium pentobarbital 30 mg/kg i.v.) at the level of the abdominal aorta and left over a prolonged period permits the later measurement of the arterial pressure in the conscious animals. Arterial hypertension is induced by a second intervention under anaesthesia consisting in a constriction of the left renal artery using a clip, which reduces its rate of flow by approximately 70%, the left kidney is enveloped in a latex capsule and the contralateral kidney is left in place.
The systolic and diastolic arterial pressures (PAS and PAD) are measured using a STATHAM P23 pressure sensor connected to the silastic catheter and linked to a GOULD pressure amplifier. The products are tested on the animals, which have become hypertensive, in the conscious state, at least one week after the second intervention. The arterial pressure is monitored continuously on an ES1000 GOULD recorder until 7 hours have elapsed after the treatment and then until 24 hours have elapsed.
The products to be tested are administered via the digestive system, after gastric intubation, in a form dissolved in water or a suitable solvent. The doses administered are expressed in mg of base with respect to body weight.
The representative products of the invention were compared with the reference product (CROMAKALIM). The variations in the systolic and diastolic arterial pressures (PAS and PAD), presented at the most significant times after treatment, are expressed as percentage variation with respect to the control values.

anaesthetised dog = assay: Haemodynamic study in the anaesthetised dog (vascular resistances), i.v.; assay type: in vivo; details: 10 μg/kg
Experimental: A complete haemodynamic study was carried out on mongrel dogs weighing from 25 to 30 kg, which were anaesthetised with sodium pentobarbital 30 mg/kg i.v., intubated and ventilated and subjected to a thoracotomy at the 5th left intercostal space. The measurement of the […] is carried out using electromagnetic rings positioned at the level of the ascending aorta and the circumflex branch of the left coronary artery, respectively, and connected to GOULD SP 2202 electromagnetic flow meters. The aortic pressure is measured by a MILLAR probe introduced via the femoral artery.
The total peripheral vascular resistance values (TPR) and the mean coronary vascular resistance values (CVRM) are calculated by the ratio between the mean aortic pressure and the mean cardiac output and the mean coronary output, respectively. The products tested were injected via the femoral vein in a form dissolved in water or a suitable solvent.
The evolution of the vascular resistances, expressed as percentage variation with respect to the control values, is presented as a function of time in the following Table.

aorta of the rat [4] = assay: Relaxation of rat aortic rings contracted by potassium depolarisation (KCl); assay type: cell-based; details: rat aorta rings without endothelium
Experimental: as §1, §2, §3, §4
potassium depolarisation:
The preparations are exposed to a 30 mM or 80 mM KCl (and 87 and 37 mM NaCl, respectively) hyperpotassium medium; after 30 minutes' stabilisation of contraction, cumulative concentrations of the product to be tested are added every 15 minutes. The relaxation values obtained allow the IC50 s to be calculated.
as §5, §6

- IC50 (aorta of the rat [4]; 30 mM KCl, listed as Ex. 1 Form B, read-out: IC50 (M) KCl 30 mM): 3.4e-07 M
- IC50 (aorta of the rat [4]; 80 mM KCl, read-out: IC50 (M) KCl 80 mM): > 0.0001 M
SMILES: CC1(C)Oc2ccc(C#N)cc2C(N2C(=O)CC[C@H]2CO)C1O (single isomer, unassigned) [Example 1 form B, 3R,4S- or 3S,4R-trans-2,2-dimethyl-3-hydroxy-4-(2-oxo-5S-hydroxymethyl-1-pyrrolidinyl)-6-cyanochroman]
- Inhibition of the bronchospasm produced by a histamine aerosol at 4% (guinea pig): 96%
- % inhibition of the response to 4AP (aorta of the rat [1]; product 3 × 10^-6 M): 18%
- % inhibition of the response to 4AP (aorta of the rat [1]; product 10^-5 M, listed as Ex. 1 Form B): 77%
- Variation (%) of PAD after treatment ([2]; 0.3 mg/kg, 1 H): -36 ± 4%
- Variation (%) of PAS after treatment ([2]; 0.3 mg/kg, 1 H): -27 ± 4%
- Variation (%) of PAD after treatment ([2]; 0.3 mg/kg, 3 H): -35 ± 4%
- Variation (%) of PAS after treatment ([2]; 0.3 mg/kg, 3 H): -25 ± 3%
- Variation (%) of PAD after treatment ([2]; 0.3 mg/kg, 6 H): -40 ± 4%
- Variation (%) of PAD after treatment ([2]; 0.3 mg/kg, 30 min): -34 ± 6%
- Variation (%) of PAS after treatment ([2]; 0.3 mg/kg, 30 min): -27 ± 5%
- Variation (%) of PAD after treatment ([2]; 1.0 mg/kg, 1 H): -54 ± 2%
- Variation (%) of PAS after treatment ([2]; 1.0 mg/kg, 1 H): -44 ± 1%
- Variation (%) of PAD after treatment ([2]; 1.0 mg/kg, 3 H): -46 ± 6%
- Variation (%) of PAS after treatment ([2]; 1.0 mg/kg, 3 H): -40 ± 2%
- Variation (%) of PAD after treatment ([2]; 1.0 mg/kg, 6 H): -46 ± 4%
- Variation (%) of PAS after treatment ([2]; 1.0 mg/kg, 6 H): -36 ± 3%
- Variation (%) of PAD after treatment ([2]; 1.0 mg/kg, 30 min): -48 ± 5%
- Variation (%) of PAS after treatment ([2]; 1.0 mg/kg, 30 min): -42 ± 2%
- Variation (%) of PAD after treatment ([3]; 1 H): +5%
- Variation (%) of PAS after treatment ([3]; 1 H): +2%
- Variation (%) of PAD after treatment ([3]; 3 H): -50%
- Variation (%) of PAS after treatment ([3]; 3 H): -55%
- Variation (%) of PAD after treatment ([3]; 7 H): -68%
- Variation (%) of PAS after treatment ([3]; 7 H): -76%
- Variation (%) of PAD after treatment ([3]; 24 H): -27%
- Variation (%) of PAS after treatment ([3]; 24 H): -24%
- Variation (%) of PAD after treatment ([3]; 30 min): 0%
- Variation (%) of PAS after treatment ([3]; 30 min): 0%
- Variation (%) of CVRM after treatment (anaesthetised dog; 1 min): -69.4%
- Variation (%) of TPR after treatment (anaesthetised dog; 1 min): -45.9%
- Variation (%) of CVRM after treatment (anaesthetised dog; 10 min): -62.0%
- Variation (%) of TPR after treatment (anaesthetised dog; 10 min): -35.1%
- Variation (%) of CVRM after treatment (anaesthetised dog; 30 min): -43.7%
- Variation (%) of TPR after treatment (anaesthetised dog; 30 min): -35.1%
